One assay relates to E3α. Put plainly: 125I-ubiquitin conjugation to endogenous muscle proteins in Fraction II of muscle extracts from YAH tumor-bearing rats, with E3α inhibitor. Type of assay: biochemical, rat. The settings on record: 10 mM inhibitor, 20 μg/ml bestatin, 37° C., 20 minutes, Fraction II of gastrocnemius muscle extract. On the procedure: The rate of ubiquitin conjugation of the endogenous muscle proteins were carried out as described in Example 10 using the skeletal muscles from the YAH tumor-bearing rats. The frozen gastrocnemius muscles collected (via dissection at sacrifice) from 6 tumor-bearing rats were combined. The muscle extracts (20% weight/volume) were prepared by homogenizing the muscles in a buffer containing 50 mM Tris HCl (pH 8.00), 5 mM MgCl2, 2 mM DTT, protease inhibitor cocktail (Sigma P8340) and 10% glycerol. The homogenates were then centrifuged at 40,000 g for 1 hr and the resulting supernatants were used as crude muscle extracts.
For some assays, the crude muscle extracts were fractionated further by chromatography on DEAE-cellulose (Whatman, Clifton, N.J.) to remove endogenous ubiquitin as described by Soloman et al. (Proc. natl. Acad. Sci. U.S.A., 95: 12602-7, 1998). The bound material Fraction II, which contained most of the ubiquitin conjugating enzymes were eluted with 50 mM Tris, pH 8.0 containing 0.5M NaCl and 1 mM DTT. Both crude extracts and Fraction II were dialyzed prior to use for ubiquitination assay against buffer containing 20 mM Tris, pH 8.0, 2 mM DTT, 5 mM MgCl2, and 10% glycerol and stored at […] until use. Crude muscle extracts were used for ubiquitin conjugation to ^125I-α-lactalbumin. […]

The test system of the next assay is muE3αII. Put plainly: Northern blot of muE3αII mRNA in cytokine-treated C2C12 myotubes. It counts as cell-based, mouse. The settings on record: 10 ng/ml cytokine for 3 days and 5 days, differentiated C2C12 myotubes vs untreated. Here is the method: Treatment with the proinflammatory cytokines, TNFα and IL-6, caused the induction of […] in C2C12 myotube cultures. C2C12 myoblasts were cultured in 100-mm dishes in an atmosphere of 5% CO2 at 37° C. in DMEM supplemented with 10% FBS and L-glutamine to reach 100% confluence. Myoblast differentiation was induced with DMEM supplemented with 2% horse serum and L-glutamine for 96 hours. Differentiated myotubes were then treated with TNFα (10 ng/ml; R&D Systems cat no. 210-TA) or IL-6 (10 ng/ml; R&D Systems cat no. 206-IL) for 3 days and 5 days.
After the 3 or 5 day incubation, RNA from differentiated C2C12 cultures was isolated with Trizol Reagent and Northern blot analysis was carried out as described in Example 11. Isolated RNA from untreated C2C12 cultures were used as a control. The blots were hybridized with a ^32P-labeled cDNA probes specific for muE3αI (lower panels) and muE3αII (upper panels). The probes were generated as described in Example 12.

Assay [1] deals with differentiated C2C12 cells. As to the kind of experiment: 125I-ubiquitin conjugation of cellular proteins in cytokine-treated differentiated C2C12 myotubes. It counts as cell-based, murine. On the procedure: To further substantiate the enzymatic activity of huE3αI and huE3αII, ubiquitin conjugation to endogenous cellular proteins were measured in cultured muscle cell lines. Cultures of murine C2C12 or rat L6 myotube cells (ATCC accession nos. CRL-1772 and CRL-1458, respectively) were transfected with huE3αI or huE3αII full length cDNA under control of the CMV promoter using Lipofectamine 2000 Reagent (Gibco). Mock transfection with the pcDNA3.1 vector without a cDNA insert was performed as a control. Cell lysates were prepared as described above for the 293T cells and the resulting supernatants were used in ubiquitin conjugation reactions. For each reaction, 30 μg of C2C12or L6 myotube cell lysate was incubated with ^125I-ubiquitin (0.15 mg/ml, approximately ×10^7 cpm) in a total volume of 25-30 μl in a buffer containing 50 mM Tris, pH 8.0, 2 mM DTT, 5 mM MgCl2, 2 mM adenosine 5′-[-thio]triphosphate (ATP S), 50 μg/ml ubiquitin aldehyde, 20 μg/ml MG132 and protease inhibitor cocktail (Sigma P8340) at 37° C. for 30 minutes. Reactions were stopped by adding sample buffer and were subjected to 12% SDS PAGE. The gels were then dried and autoradiographed.
C2C12 cells were differentiated for 5 days to allow formation of myotubes. The differentiated myotubes were treated with 2 ng/ml of IL-6 for 5, 24 or 48 hours. […]

“Also recorded” adds a separate entry of the source.

The source of these data is patent US7994291B2, “Human E3α ubiquitin ligase family” (Amgen Inc., priority 2000, dated 2011).

Consider `COC(=O)[C@@H](N)CCCNC(=N)N` [arginine methylester, arginine methyl ester], for which the “effect on accelerated muscle protein ubiquitination of tumor-bearing rats” value with E3α is given as “virtually abolished the accelerated ubiquitination activity; also recorded: virtually abolished all the increased ubiquitination activities”.
With “IL-6: proinflammatory cytokine (R&D Systems cat no. 206-IL)”, the “expression of muE3αII mRNA” value with muE3αII was “markedly increased”. For the same molecule, the “ubiquination of cellular proteins” value in assay [1] (2 ng/ml IL-6 for 5, 24 or 48 hours, detectable 5 hours post-treatment, time dependent) was “marked increase”.
In the case of TNFα, the “expression of muE3αII mRNA” value in the assay on muE3αII is on record as “markedly increased”. Also, the “125I-ubiquitin conjugation of cellular proteins” value in assay [1] (TNFα 0, 3, 6, 10, 20 ng/ml for one hour) is “dose dependent increase”.
